Laboratory results taken from US20110263454A1, “Methods of Identifying Functional Characteristics of Promoters, Transcription Modifying Proteins and Transcription Modulating Agents” (Salk Institute for Biological Studies, priority 2008, published 2011).

Tests used:
mAgrp promoter = test: NHR-promoter luciferase screen, mAgrp promoter; format: cell-based, mouse; conditions: for Results of assays of transcription factor (+/- ligand) with mAgrp: Table 6d, luciferase activity relative to control (control = 1.00); for Luc. act., normalized to lacZ / Normalized Luc. act., normalized to control: mAgrp promoter, HR component with or without ligand; for Normalized Luc. act., normalized to control: relative to control; for luciferase/LacZ, mAgrp (selected results): mAgrp promoter-luciferase, NHR +/- ligand, control = 1.0
Protocol: (§1) The use, feasibility, and reproducibility of the functional NHR-promoter screen in a 48-well format have been tested validated. Briefly, there were co-expressed 50 ng of each NHR/NHR homodimer or NHR/RXR heterodimer with 100 ng promoter/luciferase construct and 50 ng of LacZ (as a control for transfection efficiency) in CV-1 cells using Fugene HD (Roche) as a transfection reagent (alternatively or additionally, a CMV-YFP construct can be used as a transfection control). Each of the nuclear hormone receptors that were used in these experiments was cloned into a pcDNA3.1 vector and comprised a C-terminally linked V5H6 tag. Twenty-four hours after transfection, appropriate ligands were added, where applicable, (see Table 5 for various ligands and concentrations and after 48 hrs, samples were assayed for luciferase and LacZ activity. To measure for luciferase activity 15 ul of sample was added to 30 ul of luciferase buffer (20 mM tricine, 1.07 mM MgCarbonate, 2.67 mM MgSulfate, 0.1 mM Naz-EDTA, 5 mM DTT, 5 mM ATP, 0.15 mg/ml CoA, 0.5 mM Luciferin), mixed briefly, and run in a Perkin Elmer Victor 5 luminometer. Thus, the functional NHR-promoter screen was used to observe the transcriptional activity of 29 promoters from various physiological pathways including inflammation, lipid and sugar metabolism, cholesterol transport, xenobiotic metabolism, and circadian rhythm.
(§2) The promoters that facilitate transcription of the indicated gene products that were tested using the protocols described herein are listed in the first row of the table. The nuclear hormone receptors and, where applicable, ligands that were assayed for their transcriptional effects on the promoters are listed in the first column of the table. The data represent the luciferase activity of each sample normalized to both the lacZ activity of that sample and to a control, e.g., no NHR or ligand, as customary in the art. As described previously, these normalizations allow the transcriptional activity of each reporter cell to be compared to other samples.
(§3) Tables 7-40 show the transcriptional effects of the hormone receptors, and, where applicable, ligands (orphan receptors are screened without ligand), on each individual promoter. […] The control data of each table are shown in their last rows.

mPOMC promoter = test: NHR-promoter luciferase screen, mPOMC promoter; format: cell-based, mouse; conditions: for Results of assays of transcription factor (+/- ligand) with mPOMC: Table 6d, luciferase activity relative to control (control = 1.00); for Luc. act., normalized to lacZ / Normalized Luc. act., normalized to control: mPOMC promoter, HR component with or without ligand; for Normalized Luc. act., normalized to control: relative to control
Protocol: as §1, §2, §3

mADRP promoter = test: NHR-promoter luciferase screen, mADRP promoter; format: cell-based, mouse; conditions: for Luc. act., normalized to lacZ / Normalized Luc. act., normalized to control: ADRP promoter, HR/ligand component; for mADRP promoter reporter activity: transcription factor +/- ligand, control = 1.00
Protocol: as §1, §2, §3

mAdiponectin promoter = test: NHR-promoter luciferase screen, mAdiponectin promoter; format: cell-based, mouse; conditions: for Luc. act., normalized to lacZ / Normalized Luc. act., normalized to control: Adiponectin, HR component without or with its ligand; for mAdiponectin promoter reporter activity: transcription factor +/- ligand, control = 1.00
Protocol: as §1, §2, §3

RevErba promoter = test: NHR-promoter luciferase screen, RevErba (RVRa) promoter; format: cell-based; parameters: key to mRevErba promoter reporter activity / Normalized Luc. act., normalized to control: luciferase activity normalized to lacZ and to control (no NHR/ligand); conditions: for Luc. act., normalized to lacZ / Normalized Luc. act., normalized to control / negative reciprocal of normalized Luc. act. (fold repression; Table 33) / normalized Luc. act. on a logarithmic scale (column without head, Table 33): RVRa promoter; for Luc. act., normalized to lacZ / Normalized Luc. act., normalized to control: HR component without or with ligand; for negative reciprocal of normalized Luc. act. (fold repression; Table 33): given only where activity is below control; for normalized Luc. act. on a logarithmic scale (column without head, Table 33): log10 of activity normalized to control; for mRevErba promoter reporter activity: transcription factor +/- ligand, control = 1.00
Protocol: Briefly, there were co-expressed 50 ng of each NHR/NHR homodimer or NHR/RXR heterodimer with 100 ng promoter/luciferase construct and 50 ng of LacZ (as a control for transfection efficiency) in CV-1 cells using Fugene HD (Roche) as a transfection reagent (alternatively or additionally, a CMV-YFP construct can be used as a transfection control). Each of the nuclear hormone receptors that were used in these experiments was cloned into a pcDNA3.1 vector and comprised a C-terminally linked V5H6 tag.
as §2
The control data of each table are shown in their last rows.

Substance | Results of assays of transcription factor (+/- ligand) with mAgrp (mAgrp promoter) | Luc. act., normalized to lacZ (mAgrp promoter) | Normalized Luc. act., normalized to control (mAgrp promoter) | Results of assays of transcription factor (+/- ligand) with mPOMC (mPOMC promoter) | Luc. act., normalized to lacZ (mPOMC promoter) | Normalized Luc. act., normalized to control (mPOMC promoter) | Luc. act., normalized to lacZ (mADRP promoter) | Normalized Luc. act., normalized to control (mADRP promoter) | mADRP promoter reporter activity (mADRP promoter) | Luc. act., normalized to lacZ (mAdiponectin promoter) | Normalized Luc. act., normalized to control (mAdiponectin promoter) | mAdiponectin promoter reporter activity (mAdiponectin promoter) | Luc. act., normalized to lacZ (RevErba promoter) | Normalized Luc. act., normalized to control (RevErba promoter) | negative reciprocal of normalized Luc. act. (fold repression; Table 33) (RevErba promoter) | normalized Luc. act. on a logarithmic scale (column without head, Table 33) (RevErba promoter) | mRevErba promoter reporter activity (RevErba promoter) | luciferase/LacZ, mAgrp (selected results) (mAgrp promoter)
AR: Androsterone Receptor (NR3C4), cDNA driver | 1.15 | 45.8 | 1.2 | 1.05 | 72.2 | 1.0 | 600.8 | 1.2 | 1.21 | 82.7 | 1.3 | 1.32 | 13.5 | 0.5 | −2.065 | −0.31 | 0.48 | –
ERR1: Estrogen Related Receptor α (NR3B1, ERRa), cDNA driver | 1.15 | 45.5 | 1.1 | 1.00 | 68.9 | 1.0 | 767.6 | 1.5 | 1.54 | 49.2 | 0.8 | 0.78 | 33.3 | 1.2 | – | 0.08 | 1.19 | –
GR: Glucocorticoid Receptor (NR3C1), cDNA driver | 0.55 | 22.0 | 0.6 | 0.50 | 34.5 | 0.5 | 238.1 | 0.5 | 0.48 | 33.2 | 0.5 | 0.53 | 12.3 | 0.4 | −2.269 | −0.36 | 0.44 | 0.6
LXRa: Liver X Receptor α (NR1H3), cDNA driver | 1.58 | 62.5 | 1.6 | 1.70 | 117.1 | 1.7 | 1095.7 | 2.2 | 2.20 | 60.7 | 1.0 | 0.97 | – | – | – | – | – | –
NR4a1: NR4a1 (NR4A1; NUR77), nuclear hormone receptor cDNA driver | 1.17 | 46.3 | 1.2 | 3.58 | 246.9 | 3.6 | 1029.3 | 2.1 | 2.07 | 85.6 | 1.4 | 1.36 | 24.6 | 0.9 | −1.1361 | −0.06 | 0.88 | 1.2
PNR: Photoreceptor-specific Nuclear Receptor (NR2E3), cDNA driver | 0.76 | 30.1 | 0.8 | 0.81 | 56.0 | 0.8 | 381.7 | 0.8 | 0.77 | 70.7 | 1.1 | 1.13 | 7.1 | 0.3 | −3.936 | −0.60 | 0.25 | –
